This is an account of results in US7744921B2, “Liposome loading with metal ions” (Celator Pharmaceuticals, Inc., priority 2001, dated 2010).

The nature of data set [1]: Precipitation of MnSO4 in pH 7.4 HEPES buffer (metal compatible solution). The format is physicochemical. Conditions: 300 mM solution of MnSO4 in pH 7.4 HEPES buffer. Here is the method:
Preferably, the metal solution should be clear and soluble, free of aggregation, precipitation or flocculation for at least about 4 hours. By way of example, a 300 mM solution of MnSO4 in pH 7.4 HEPES buffer as described in Cheung, et al. [supra] is not a metal compatible solution as it produces an obvious brown precipitate of Mn(OH)2 comprising approximately 6-7 molar % of the manganese added to the solution.
An alternative preferred method of determining whether a metal solution is metal compatible is by centrifugation (e.g. 100 ml sample at 1000 rpm for 10 minutes) to collect any precipitate, measuring the amount of precipitate collected and determining the proportion of the metal added to the original solution present in the precipitate. The amount of metal in the precipitate should not exceed about 1 molar % of the amount of metal added to the original solution.

A short description of data set [2]: Plasma drug-to-lipid ratio 24 hours after intravenous administration of daunorubicin liposomes. Conditions: DSPC/DSPE-PEG2000 (95:5) liposomes with citrate pH 4.0, CuSO4 or MnSO4; Balb/c mice, lipid 100 mg/kg, daunorubicin 10 mg/kg. It counts as in vivo. How it is done: DSPC/DSPE-PEG2000 liposomes were prepared as described and extruded at 75° C. The external solution was exchanged to HBS by dialysis against HBS. […] Plasma lipid concentrations were determined by liquid scintillation counting. […] The resulting mixture was mixed and 2 mL of 1:1 isopropanol/chloroform was added followed by vortexing. The samples were frozen at −20° C. overnight or −80° C. for 1 hour to promote protein aggregation, brought to room temperature, vortexed and centrifuged at 3000 rpm for 10 minutes.

Data set [3] is described as follows: Active (metal-based, citrate or ionophore) loading of drug into liposomes; spin column, drug-to-lipid ratio. The format is physicochemical.
Experiment in data set [4]: as above
The format is physicochemical. Here is the method: Lipids were dissolved in chloroform solution and subsequently dried under a stream of nitrogen gas and placed in a vacuum pump to remove solvent. Unless otherwise specified, trace levels of radioactive lipid 3H-CHE were added to quantify lipid during the formulation process. The resulting lipid film was placed under high vacuum for a minimum of 2 hours. The lipid film was hydrated in the solution indicated to form multilamellar vesicles (MLVs). The resulting preparation was extruded 10 times through stacked polycarbonate filters with an extrusion apparatus (Lipex Biomembranes, Vancouver, BC) to achieve a mean liposome size between 80 and 150 nm. All constituent lipids of liposomes are reported in mole %.
At various time points after initiation of drug loading, aliquots were removed and passed through a Sephadex G-50 spin column to separate free from encapsulated drug. To a specified volume of eluant, Triton X-100 or N-ocyl beta-D-glucopyranoside (OGP) was added to solubilize the liposomes. Following addition of detergent, the mixture was heated to the cloud point of the detergent and allowed to cool to room temperature before measurement of the absorbance or fluorescence. Drug concentrations were calculated by comparison to a standard curve.
In order to determine whether copper loading of irinotecan in the absence of a pH gradient could occur using a cholesterol-free formulation, DSPC/DSPG (80:20 mole ratio) liposomes containing copper(II) gluconate were prepared with an external and internal pH of 7.4. […] The lipid films were hydrated in 100 mM Cu(II) gluconate adjusted to pH 7.4 with triethanolamine (TEA) and extruded at 70° C. […] Irinotecan was added to the liposome preparation at a 0.1:1 drug-to-lipid mole ratio and incubated at 50° C. The extent of drug loading was determined as described in the methods by measuring absorbance at 370 nm and lipid levels were determined by liquid scintillation counting.
Loading of daunorubicin into DSPC/DSPG (90:10 mole ratio) liposomes containing encapsulated CuSO4 buffered to pH 7.4 was also investigated. […] A solution of 150 mM CuSO4, 20 mM histidine (adjusted to pH 7.4 using TEA), was employed as the hydration medium and MLVs were extruded at 70° C. […] Daunorubicin was loaded at a 0.1:1 drug/lipid weight ratio. A drug-to-lipid ratio at various time points during loading was determined by measuring absorbance at 480 nm after solubilization in detergent to quantify daunorubicin as described; lipid levels were determined by liquid scintillation counting.
The liposomes were prepared as described in the methods by hydrating lipid films in a solution of 100 mM copper(II) gluconate adjusted to pH 7.4 with TEA. Liposomes were extruded at 65° C. and the external buffer of the liposomes was exchanged to SHE, pH 7.4 by tangential flow dialysis. Liposomes were incubated with irinotecan at a 0.1:1 drug-to-lipid weight ratio at 50° C. and the extent of drug loading was determined as described by measuring absorbance at 370 nm after solubilization by detergent.
In addition to copper loading, loading of drug using MnSO4 containing liposomes in the absence of a pH gradient was also investigated. […] Lipids films were prepared as described and hydrated in 300 mM MnSO4 buffered to pH 7.4 with 20 mM imidazole (initial pH was adjusted to 7.4 with concentrated HCl) and extrusion was carried out at 70° C. The samples were run down a Sephadex G-50 column to exchange the exterior buffer with SHE, pH 7.4.
This is another data set of the same source.

“Also recorded” adds a separate entry of the source. Where two headings read alike, the source gives them in different places. Where only a bound is given, the exact number is not on record here.

For `O=S(=O)([O-])[O-].[Mn+2]` [MnSO4 in pH 7.4 HEPES buffer, MnSO4], the “proportion of added manganese in Mn(OH)2 precipitate” value in data set [1] was 6-7 molar %.

For `COc1cccc2c1C(=O)c1c(O)c3c(c(O)c1C2=O)C[C@@](O)(C(C)=O)C[C@@H]3O[C@H]1C[C@H](N)[C@H](O)[C@H](C)O1` [daunorubicin], the “plasma drug-to-lipid ratio 24 hours after intravenous administration (in words)” value in data set [2] was “differing plasma drug-to-lipid ratios”. Moreover, in data set [3], the drug encapsulation is listed as 80% and the encapsulation was over 95%. Further, in data set [4], the added drug encapsulated is over 90%, the “encapsulation compared to CuCl2 (in words)” value is on record as “not as efficient” and the “loading (in words)” value was “most efficient; also recorded: occurred to a lesser extent; also recorded: less efficient”. In addition, the “daunorubicin to lipid ratio achieved” value in data set [4] (DSPC/DSPE-PEG2000 (95:5), 300 mM MnSO4, loading temperature 60° C.) is 0.07 mol:mol. Further, in data set [4] (DSPC/DSPE-PEG2000 (95:5), 300 mM NiSO4, SHE pH 7.4, weight ratio 0.2:1, 60° C., within 5 minutes), the drug encapsulation result is listed as “greater than 75%”. In data set [4] (pH 7.4), the “loading (in words)” value was “efficiently load” and the uptake into liposomes was found to be 100%.
